Data published in patent US20130096105A1, “ArylSulfonamide Based Matrix Metalloprotease Inhibitors” (NOVARTIS AG, priority 2008, published 2013).

Tests used:
Gelatinase (MMP-2) = biological target: T1, Gelatinase (MMP-2) (Homo sapiens, UniProt P08253); test: Gelatinase (MMP-2) inhibitory activity, fluorogenic peptide substrate cleavage; format: biochemical; conditions: read-out: MMP02 IC50
T1 sequence (P08253 110-660): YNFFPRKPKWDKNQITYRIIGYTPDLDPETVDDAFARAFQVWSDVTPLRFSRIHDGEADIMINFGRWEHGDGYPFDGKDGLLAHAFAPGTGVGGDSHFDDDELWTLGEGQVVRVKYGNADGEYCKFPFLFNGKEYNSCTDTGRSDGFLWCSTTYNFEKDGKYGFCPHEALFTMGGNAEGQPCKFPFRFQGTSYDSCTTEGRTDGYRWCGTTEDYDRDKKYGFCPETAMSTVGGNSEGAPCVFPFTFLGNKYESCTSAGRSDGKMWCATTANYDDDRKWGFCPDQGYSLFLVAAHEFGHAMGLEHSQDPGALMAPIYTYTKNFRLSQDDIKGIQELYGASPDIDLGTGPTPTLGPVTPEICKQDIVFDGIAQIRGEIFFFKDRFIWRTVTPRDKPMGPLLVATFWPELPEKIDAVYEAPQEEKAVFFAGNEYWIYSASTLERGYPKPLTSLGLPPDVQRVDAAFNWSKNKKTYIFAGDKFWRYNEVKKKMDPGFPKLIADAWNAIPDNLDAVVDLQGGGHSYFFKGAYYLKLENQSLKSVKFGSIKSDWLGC
Method in brief: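 Fluorogenic assay with MCA-Lys-Pro-Leu-Gly-Leu-Dpa-Ala-Arg-NH2 at 5 μM in Tris-Cl pH 7.5 buffer with ZnCl2, CaCl2, Brij-35 and 1.0% DMSO, 20-25 °C. Enzyme preincubated with inhibitor 60 min; fluorescence (ex 325/em 405 nm) read 60 min after substrate addition. IC50 relative to uninhibited control.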

Collagenase-3 (MMP-13) = Collagenase-3 (MMP-13) (Homo sapiens, UniProt P45452); test: Collagenase-3 (MMP-13) inhibitory activity, fluorogenic peptide substrate cleavage; format: biochemical; conditions: read-out: MMP13 IC50
Method in brief: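 Recombinant pro-MMP-13 activated with 1 mM APMA; inhibitor preincubated 60 min, then 5 μM MCA-Lys-Pro-Leu-Gly-Leu-Dpa-Ala-Arg-NH2 added in Tris-Cl pH 7.5 buffer with Zn2+, Ca2+, Brij-35, 1.0% DMSO, 20-25 °C. Fluorescence (ex 325/em 405 nm) read after 60 min; IC50 versus uninhibited control.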

IC50 (Gelatinase (MMP-2)) [µM] | IC50 (Collagenase-3 (MMP-13)) [nM] | melting point [°C] | Compound
1.92 | 2490 | 119 to 122 | COc1ccc(C(=O)c2cccc(S(N)(=O)=O)c2)cc1 [Example 1, 3-(4-Methoxy-benzoyl)-benzenesulfonamide]
5.18 | 2020 | 156 to 158 | COc1ccc(C(=O)c2ccc(Cl)c(S(N)(=O)=O)c2)cc1 [Example 3, 2-Chloro-5-(4-methoxy-benzoyl)-benzenesulfonamide]
10.4 | 12400 | 147 to 149 | C#Cc1ccc(C(=O)c2ccc(Cl)c(S(N)(=O)=O)c2)cc1 [Example 31, 2-Chloro-5-(4-ethynyl-benzoyl)-benzenesulfonamide]
14.5 | 8580 | 193 to 195 | NS(=O)(=O)c1cc(C(=O)c2ccc(-c3ccc4ccccc4c3)cc2)ccc1Cl [Example 38, 2-Chloro-5-(4-naphthalen-2-yl-benzoyl)-benzenesulfonamide]
> 9 | 7520 | 190 to 192 | NS(=O)(=O)c1cc(C(=O)c2ccc(-c3cccnc3)cc2)ccc1Cl [Example 41, 2-Chloro-5-(4-pyridin-3-yl-benzoyl)-benzenesulfonamide]
17.3 | 11100 | 206 to 208 | NS(=O)(=O)c1cc(C(=O)c2ccc(O)c(F)c2)ccc1Cl [Example 47, 2-Chloro-5-(3-fluoro-4-hydroxy-benzoyl)-benzenesulfonamide]
24.3 | 21300 | 183 to 185 | NS(=O)(=O)c1cc(C(=O)c2ccc(O)cc2F)ccc1Cl [Example 50, 2-Chloro-5-(2-fluoro-4-hydroxy-benzoyl)-benzenesulfonamide]
> 30 | > 30000 | 146 to 148 | NS(=O)(=O)c1cc(C(=O)c2ccc(C(=O)N3CCCC3)cc2)ccc1Cl [Example 53, 2-Chloro-5-[4-(pyrrolidine-1-carbonyl)-benzoyl]-benzenesulfonamide]
6.31 | 5440 | 176 to 178 | Cc1cccc(-c2ccc(C(=O)c3ccc(Cl)c(S(N)(=O)=O)c3)cc2)c1 [Example 60, 2-Chloro-5-(3′-methyl-biphenyl-4-carbonyl)-benzenesulfonamide]
1.37 | 2410 | 228 to 230 | Nc1cccc(-c2ccc(C(=O)c3ccc(Cl)c(S(N)(=O)=O)c3)cc2)c1 [Example 69, 5-(3′-Amino-biphenyl-4-carbonyl)-2-chloro-benzenesulfonamide]
> 30 | 25900 | 75 to 77 | NS(=O)(=O)c1cc(C(=O)c2ccc(-c3cccc(C(F)(F)F)c3)cc2)ccc1Cl [Example 75, 2-Chloro-5-(3′-trifluoromethyl-biphenyl-4-carbonyl)-benzenesulfonamide]
12 | 16100 | 55 to 56 | NS(=O)(=O)c1cc(C(=O)c2ccc3c(c2)CCN3)ccc1Cl [Example 110, 2-Chloro-5-(2,3-dihydro-1H-indole-5-carbonyl)-benzenesulfonamide]
15.4 | 15300 | 65 to 66 | NS(=O)(=O)c1cc(C(=O)c2ccc3[nH]ccc3c2)ccc1Cl [Example 116, 2-Chloro-5-(1H-indole-5-carbonyl)-benzenesulfonamide]
3.45 | 41 | – | Cc1cc(-c2c[nH]c3cc(C(=O)c4ccc(Cl)c(S(N)(=O)=O)c4)ccc23)ccn1 [Example 137, 2-Chloro-5-[3-(2-methyl-pyridin-4-yl)-1H-indole-6-carbonyl]-benzenesulfonamide]
3.55 | 60 | – | CCc1cc(-c2c[nH]c3cc(C(=O)c4ccc(Cl)c(S(N)(=O)=O)c4)ccc23)ccn1 [Example 138, 2-Chloro-5-[3-(2-ethyl-pyridin-4-yl)-1H-indole-6-carbonyl]-benzenesulfonamide]
4.15 | 68 | – | NS(=O)(=O)c1cc(C(=O)c2ccc3c(-c4ccnc(C5CC5)c4)c[nH]c3c2)ccc1Cl [Example 139, 2-Chloro-5-[3-(2-cyclopropyl-pyridin-4-yl)-1H-indole-6-carbonyl]-benzenesulfonamide]
0.36 | 7 | – | COCCCc1cc(-c2c[nH]c3cc(C(=O)c4ccc(Cl)c(S(N)(=O)=O)c4)ccc23)ccn1 [Example 140, 2-Chloro-5-{3-[2-(3-methoxy-propyl)-pyridin-4-yl]-1H-indole-6-carbonyl}-benzenesulfonamide]
1.1 | 20 | – | NS(=O)(=O)c1cc(C(=O)c2ccc3c(-c4ccnc(CCCN5CCOCC5)c4)c[nH]c3c2)ccc1Cl [Example 141, 2-Chloro-5-{3-[2-(3-morpholin-4-yl-propyl)-pyridin-4-yl]-1H-indole-6-carbonyl}-benzenesulfonamide]
0.2 | 17 | – | CN(C)CCOc1cc(-c2c[nH]c3cc(C(=O)c4ccc(Cl)c(S(N)(=O)=O)c4)ccc23)ccn1 [Example 142, 2-Chloro-5-{3-[2-(2-dimethylamino-ethoxy)-pyridin-4-yl]-1H-indole-6-carbonyl}-benzenesulfonamide]
2.85 | 150 | – | NS(=O)(=O)c1cc(C(=O)c2ccc3c(-c4ccnc(OCCN5CCOCC5)c4)c[nH]c3c2)ccc1Cl [Example 143, 2-Chloro-5-{3-[2-(2-morpholin-4-yl-ethoxy)-pyridin-4-yl]-1H-indole-6-carbonyl}-benzenesulfonamide]
0.39 | 300 | – | NS(=O)(=O)c1cc(C(=O)c2ccc3cc[nH]c3c2)ccc1F [Example 144, 2-Fluoro-5-(1H-indole-6-carbonyl)-benzenesulfonamide]
0.2 | 100 | – | Cc1ccc(C(=O)c2ccc3cc[nH]c3c2)cc1S(N)(=O)=O [Example 145, 5-(1H-Indole-6-carbonyl)-2-methyl-benzenesulfonamide]
0.24 | 200 | – | NS(=O)(=O)c1cccc(C(=O)c2ccc3cc[nH]c3c2)c1 [Example 146, 3-(1H-Indole-6-carbonyl)-benzenesulfonamide]
2.4 | 20 | – | Cc1cc(-c2c[nH]c3cc(C(=O)c4ccc(C)c(S(N)(=O)=O)c4)ccc23)ccn1 [Example 147, 2-Methyl-5-[3-(2-methyl-pyridin-4-yl)-1H-indole-6-carbonyl]-benzenesulfonamide]
